Where no end group is shown, it is not given here.
How the values were obtained:
[1] = in vivo; cited from earlier work
LH surge = details: trigger in ART protocol with GnRH antagonist and FSH; cited from earlier work
serum LH, FSH, E2 = test: Physiological effects in healthy women, follicular phase (Example 11, Part 1); assay type: in vivo, human; details: 9.6 nmol/kg SC
Description: The study population included healthy women, aged 18-35 years, with BMI 18-30 kg/m^2, no medical problems and not taking any medications or hormonal contraception. Three healthy, female subjects were selected and randomized and received a single dose of each of the three study regimens noted below (one regimen per study period). All women were scheduled for three Study D1 Visits (each during the follicular phase of the menstrual cycle). […] The order in which a subject receives one of the three study regimens was determined by a randomization matrix.
The study included a screening visit to collect participants' full medical history and to conduct a general medical examination and blood testing. The three study periods each consisted of three planned study visits per study period (excluding screening and follow-up). Study Day 1 (SD1) Visit of each study period occurred during the follicular phase of the menstrual cycle (days 1-4), and the SD2 and SD3 Visits occurred at 24- and 48-hrs post-dose, respectively (FIG. 14). A follow-up phone call happened 7-10 days post-dose in each study period.
Immediately following dosing, serum LH, FSH, E2 (oestradiol), P (progesterone) and SHBG levels were assessed at 30 minute intervals for up to 14 hours (FIGS. 15A-15C, 16A-16C, 17, 18, 19, 20A, and 20B). These PD variables were also assessed at 24 (Study Day 2) and 48 hours (Study Day 3) post-dose. SHBG changes less rapidly and was measured every 3 hours to reduce blood volume.
Up to 3 mL of blood volume were required for measurement of serum reproductive hormone levels (LH, FSH, E2 and P). Blood samples for serum analysis were collected in plain Vacutainer tubes (Beckton Dickson, Franklin Lakes, N.J., USA), and spun after clotting (˜1 hour at room temperature) for 10 minutes at 3000 rpm. Serum was then stored in a locked freezer at −20° C. until assay of serum reproductive hormone levels.

kisspeptin-54: previously shown to be clinically effective as a trigger for oocyte maturation in IVF studies (GTSLSPPPESSGSPQQPGLSAPHSRQIPAPQGAVLVQREKDLPNYNWNSFGLRF; ends and bridges not checked; UniProt Q15726 68-121, looked up)
half-life [1]: 32 min | Time by which the LH surge resolved (LH surge): ≤ 36 h | Time of LH peak after administration (serum LH, FSH, E2): 4 to 6 h

Reference: patent US11013780B2, “Methods of treating female infertility” (Myovant Sciences GmbH, priority 2016, dated 2021)
